Assays:
human DGAT1 = target: T1, human DGAT1 (Homo sapiens, UniProt O75907); experiment: Inhibition of DGAT1 activity, FlashPlate assay with DGAT1 membrane preparations and substrate micelles; assay type: biochemical; conditions: pIC50 = -logIC50, IC50 values expressed in M
T1 construct: FLAG (N); made in house; host or cells: SF9 insect cells (pFastBac baculovirus); total cell membranes
T1 sequence (O75907 1-488): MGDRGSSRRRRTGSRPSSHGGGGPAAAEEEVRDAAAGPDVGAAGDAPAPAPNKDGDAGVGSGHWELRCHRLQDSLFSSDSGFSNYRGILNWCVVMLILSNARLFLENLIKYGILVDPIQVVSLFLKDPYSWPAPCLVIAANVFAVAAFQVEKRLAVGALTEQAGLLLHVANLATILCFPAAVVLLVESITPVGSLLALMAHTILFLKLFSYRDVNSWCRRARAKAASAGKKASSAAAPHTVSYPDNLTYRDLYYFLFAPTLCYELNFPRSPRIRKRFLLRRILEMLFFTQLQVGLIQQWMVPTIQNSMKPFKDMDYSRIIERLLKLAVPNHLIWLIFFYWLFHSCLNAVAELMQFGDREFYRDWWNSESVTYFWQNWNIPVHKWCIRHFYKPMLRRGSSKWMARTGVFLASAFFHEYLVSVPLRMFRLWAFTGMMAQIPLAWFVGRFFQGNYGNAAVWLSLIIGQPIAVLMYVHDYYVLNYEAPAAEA
How it was run: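 FLAG-tagged human DGAT1 membranes (expressed in Sf9 cells) were incubated 120 min at 37° C. in 50 mM Tris-HCl pH 7.4 with 150 mM MgCl2, 1 mM EDTA, 0.2% BSA, 50 μM DAG micelles (PC/PS) and 8.4 μM [^3H]-oleoylCoA. The reaction was stopped with N-ethylmaleimide and read as FlashPlate radioluminescence. Responses were normalized to enzyme/no-enzyme controls to fit dose-response curves.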

| Compound | IC50 (human DGAT1) [nM] | melting point [°C] |
| --- | --- | --- |
| Cc1cccc(Cl)c1NC(=O)N1CCN(c2ccc(NC(=O)CCCc3ccccc3)cc2)CC1 [Compound 60] | 12.6 | 240.7 |
| CS(=O)(=O)N1CCN(CC(=O)Nc2ccc(N3CCN(C(=O)Nc4c(Cl)cccc4Cl)CC3)cc2)CC1 [Compound 26] | 692 | 232 to 234 |
| Cc1cc(C)c(NC(=O)N2CCN(c3ccc(NC(=O)CCCc4ccccc4)cc3)CC2)c(Cl)c1 [Compound 64] | 7.08 | 210.6 |
| CC1CN(CC(=O)Nc2ccc(N3CCN(C(=O)Nc4c(Cl)cccc4Cl)CC3)cc2)CC(C)O1 (stereo not drawn) [Compound 37] | 129 | 237.1 |
| O=C(CCCc1ccccc1)Nc1ccc(N2CCN(C(=O)Nc3c(Cl)cccc3Cl)CC2)cc1 [Compound 58] | 5.37 | 114 to 124 |
| O=C(COC(=O)c1ccccc1)Nc1ccc(N2CCN(C(=O)Nc3c(Cl)cc(CN4CCCC4)cc3Cl)CC2)cc1 [Compound 304] | 21.9 | 243.74 |
| CC1CCCN1CC(=O)Nc1ccc(N2CCN(C(=O)Nc3c(Cl)cccc3Cl)CC2)cc1 (stereo not drawn) [Compound 179] | 1070 | 220 to 222 |
| Cc1ccc(NCC(=O)Nc2ccc(N3CCN(C(=O)Nc4c(Cl)cc(O)cc4Cl)CC3)cc2)c(C)c1 [Compound 185] | 3.72 | 202 to 203 |
| C=CCN(CCC(=O)Nc1ccc(N2CCN(C(=O)Nc3c(Cl)cccc3Cl)CC2)cc1)c1ccc(C)cc1C [Compound 183] | 12.6 | 226 to 227 |
| COc1ccc(CNC(=O)c2ccc(N3CCN(C(=O)Cc4c(Cl)cccc4Cl)CC3)cc2)c(OC)c1 [Compound 230] | 42.7 | 180.99 |
| O=C(CCN1CCCCC1)Nc1ccc(N2CCN(C(=O)Nc3c(Cl)cccc3Cl)CC2)cc1 [Compound 138] | 1320 | 241.1 |
| O=C(NCc1cccc(N2CCCC2)c1)c1ccc(N2CCN(C(=O)Cc3c(Cl)cccc3Cl)CC2)cc1 [Compound 234] | 50.1 | 251.1 |
| O=C(CNCc1ccc(Cl)cc1)Nc1ccc(N2CCN(C(=O)Nc3c(Cl)cccc3Cl)CC2)cc1 [Compound 178] | 75.9 | 183 to 184 |
| Cc1ccc(NCC(=O)Nc2ccc(N3CCN(C(=O)Nc4c(Cl)cccc4Cl)CC3)cc2)c(C)c1 [Compound 22] | 14.8 | 248 to 249 |
| O=C(CCCc1cccnc1)Nc1ccc(N2CCN(C(=O)Nc3c(Cl)cccc3Cl)CC2)cc1 [Compound 194] | 33.9 | 233 to 234 |
| O=C(CCc1ccccn1)Nc1ccc(N2CCN(C(=O)Nc3c(Cl)cccc3Cl)CC2)cc1 [Compound 9] | 550 | 187 to 188 |
| O=C(CC1CCCCC1)Nc1ccc(N2CCN(C(=O)Nc3c(Cl)cccc3Cl)CC2)cc1 [Compound 1] | 4.47 | 285.3 |
| O=C(CCCc1ccccc1)Nc1ccc(N2CCN(C(=O)Nc3c(Cl)cc(CO)cc3Cl)CC2)cc1 [Compound 28] | 1.95 | 196.1 |
| CC(=O)c1cc(Cl)c(NC(=O)N2CCC(c3ccc(NC(=O)CCCc4ccccc4)cc3)CC2)c(Cl)c1 [Compound 319] | 66.1 | 160 to 161 |
| COc1ccc(CNCCC(=O)Nc2ccc(N3CCN(C(=O)Nc4c(Cl)cccc4Cl)CC3)cc2)cc1 [Compound 32] | 347 | 188 to 189 |
| COc1ccc(CN(C)C(=O)c2ccc(N3CCN(C(=O)Nc4c(Cl)cc(CN5CCCC5)cc4Cl)CC3)cc2)cc1 [Compound 263] | 3720 | 132.84 |
| CCCc1ccccc1NC(=O)N1CCN(c2ccc(NC(=O)CCCc3ccccc3)cc2)CC1 [Compound 77] | 1660 | 200.2 |
| O=C(CCN(Cc1ccc(F)cc1)S(=O)(=O)c1ccccc1[N+](=O)[O-])Nc1ccc(N2CCN(C(=O)Nc3c(Cl)cccc3Cl)CC2)cc1 [Compound 175] | 24 | 215 to 216 |
| CC(C)(C)OC(=O)NC1(C(=O)Nc2ccc(N3CCN(C(=O)Nc4c(Cl)cccc4Cl)CC3)cc2)CCCC1 [Compound 5] | 151 | 242.6 |
| COc1ccc(CC(=O)Nc2ccc(N3CCN(C(=O)Oc4c(Cl)cc(CN(C)C)cc4Cl)CC3)cc2)cc1 [Compound 312] | 44.7 | 182.46 |
| COc1ccc(CC(=O)Nc2ccc(N3CCN(C(=O)Nc4c(Cl)cc(C(=O)N5CCN(C)CC5)cc4Cl)CC3)cc2)cc1 [Compound 305] | 24.5 | 253.39 |

| Compound | IC50 (human DGAT1) [nM] | melting point [°C] |
| --- | --- | --- |
| Cc1cc(C)cc(N2CCN(CC(=O)Nc3ccc(N4CCN(C(=O)Nc5c(Cl)cccc5Cl)CC4)cc3)CC2)c1 [Compound 41] | 77.6 | 186.1 |
| CC1CCCN1CCC(=O)Nc1ccc(N2CCN(C(=O)Nc3c(Cl)cccc3Cl)CC2)cc1 (stereo not drawn) [Compound 176] | 6170 | 232 to 233 |
| CC(C)NC(=O)N(C)CC(=O)Nc1ccc(N2CCN(C(=O)Nc3c(Cl)cccc3Cl)CC2)cc1 [Compound 14] | 316 | 217 to 219 |
| CCC(C)c1ccccc1NC(=O)N1CCN(c2ccc(NC(=O)CCCc3ccccc3)cc2)CC1 (stereo not drawn) [Compound 86] | 1700 | 207.8 |
| O=C(CC(=O)OCc1ccccc1)Nc1ccc(N2CCN(C(=O)Nc3c(Cl)cc(CN4CCCC4)cc3Cl)CC2)cc1 [Compound 307] | 29.5 | 206.22 |
| CCOC(=O)CC(=O)Nc1ccc(N2CCN(C(=O)Nc3c(Cl)cccc3Cl)CC2)cc1 [Compound 50] | 95.5 | 219.9 |
| O=C(CNC1CCCCC1)Nc1ccc(N2CCN(C(=O)Nc3c(Cl)cccc3Cl)CC2)cc1 [Compound 180] | 407 | 185 to 187 |
| CCOC(=O)CCCC(=O)Nc1ccc(N2CCN(C(=O)Nc3c(Cl)cc(CN4CCCC4)cc3Cl)CC2)cc1 [Compound 322] | 91.2 | 208.65 |
| Cc1ccccc1NC(=O)N1CCN(c2ccc(NC(=O)CCCc3ccccc3)cc2)CC1 [Compound 96] | 75.9 | 164.7 |
| Cc1ccc(NCCC(=O)Nc2ccc(N3CCN(C(=O)Nc4c(Cl)cc(O)cc4Cl)CC3)cc2)c(C)c1 [Compound 280] | 6.76 | 227 to 228 |
| O=C(CCCc1ccncc1)Nc1ccc(N2CCN(C(=O)Nc3c(Cl)cccc3Cl)CC2)cc1 [Compound 197] | 123 | 251 to 252 |
| C=CCN(CCC(=O)Nc1ccc(N2CCN(C(=O)Nc3c(Cl)cccc3Cl)CC2)cc1)c1ccccc1Cl [Compound 7] | 8.51 | 232 to 233 |
| O=C(CCOc1ccccc1)Nc1ccc(N2CCN(C(=O)Nc3c(Cl)cccc3Cl)CC2)cc1 [Compound 3] | 7.59 | 268.2 |
| CN(CC(=O)Nc1ccc(N2CCN(C(=O)Nc3c(Cl)cccc3Cl)CC2)cc1)C(=O)Cc1ccccc1 [Compound 171] | 28.2 | 253 to 255 |
| CCOC(=O)c1ccccc1NC(=O)N1CCN(c2ccc(NC(=O)CCCc3ccccc3)cc2)CC1 [Compound 91] | 5500 | 194.7 |
| O=C(CCCc1ccccc1)Nc1ccc(N2CCN(C(=O)Nc3c(F)cccc3F)CC2)cc1 [Compound 67] | 60.3 | 187 |
| O=C(CCCc1ccccc1)Nc1ccc(N2CCN(C(=O)Nc3ccccc3)CC2)cc1 [Compound 339] | 3090 | 219.91 |
| COc1ccc(CNC(=O)c2ccc(N3CCN(C(=O)Nc4c(Cl)cc(CN5CCCC5)cc4Cl)CC3)cc2F)cc1 [Compound 255] | 339 | 176.5 to 178 |
| CN(C)CC(=O)Nc1ccc(N2CCN(C(=O)Nc3c(Cl)cccc3Cl)CC2)cc1 [Compound 200] | 3630 | 245 to 246 |
| COc1ccc(CC(=O)Nc2ccc(N3CCN(C(=O)Nc4c(Cl)cc(CN5CCN(S(C)(=O)=O)CC5)cc4Cl)CC3)cc2)cc1 [Compound 268] | 1.7 | 224.69 |
| CCOC(=O)c1ccc(CCCCCNC(=O)c2ccc(N3CCN(C(=O)Nc4c(Cl)cc(CN5CCCC5)cc4Cl)CC3)cc2)cc1 [Compound 226] | 9.77 | 180.97 |
| CCOC(=O)CCCC(=O)Nc1ccc(N2CCN(C(=O)Nc3c(Cl)cc(CN4CCCCC4)cc3Cl)CC2)cc1 [Compound 318] | 64.6 | 211 to 212 |
| CC(O)c1cc(Cl)c(NC(=O)N2CCN(c3ccc(NC(=O)CCCc4ccccc4)cc3)CC2)c(Cl)c1 (stereo not drawn) [Compound 29] | 3.98 | 187.3 |
| C=CC(=O)Nc1ccc(N2CCN(C(=O)Nc3c(Cl)cccc3Cl)CC2)cc1 [Compound 202] | 107 | 245 to 246 |
| Cc1cc(C)c(NC(=O)N2CCN(c3ccc(NC(=O)CCCc4ccccc4)cc3)CC2)c(Br)c1 [Compound 11] | 6.17 | 238.7 |

Reference: patent US8981094B2, “Piperidine/piperazine derivatives” (Janssen Pharmaceutica N.V., priority 2007, dated 2015)
